Measured values reported in US5804590A, “Treatment and prophylaxis of osteoporosis” (Sankyo Company, Limited, priority 1995, dated 1998).
Entries after “also recorded” stand apart in the source; their conditions may differ.

Legend:
ddy-mice = assay: Acute toxicity, oral administration; conditions: in vivo, po, 300 mg/kg
Method: (§1) The acute toxicity of troglitazone was examined by a conventional procedure.
(§2) To 3 ddy-mice, a dose of 300 mg/kg of troglitazone was administered orally.
(§3) The acute toxicities of Compounds Nos. 2, 3, 4 and 10 were examined in a similar way by oral administration. The acute toxicity values were all found to be more than 300 mg/kg.

[1] = system: Zucker Diabetic Fatty rats; assay: Measurement of bone mineral density (femoral bones, ZDF rats); type: in vivo; conditions: for Bone mineral density (BMD): mean ± standard error
Method: Osteoporosis may be assessed by a measurement of bone mineral density. Bone mineral density can be measured according to the method reported, for example, in Radioisotope, 37, (9), 521-524 (1988) or in Rinsho-Hoshasen, 35, (1), 41-48 (1990).
Three groups of animals were tested:
(§4) 1. Zucker Diabetic Fatty rats ("ZDF rats"): these are experimental animals with spontaneous diabetes mellitus. A test drug was administered to these animals in a conventional F2 powdery feed. This group is referred to as the "test ZDF group".
2. ZDF rats to which the F2 powdery feed is administered without the drug. This group is referred to as the "control ZDF group".
3. Normal experimental rats (i.e. not ZDF rats) to which the F2 powdery feed is administered without the drug. This group is referred to as the "normal group".
(§5) Compound No. 1, or 5-[4-(6-hydroxy-2,5,7,8-tetramethylchroman-2-ylmethoxy)benzyl]thiazolidin- 2,4-dione, also known as "troglitazone", was administered to 6 week old ZDF rats, by mixing it into F2 powdery feed in an amount of 0.2% w/w for a period of 13 weeks. The mean dosage was 165 mg/kg/day. […] At 19 weeks of age, the rats were sacrificed by ether anesthesia followed by blood-letting from the abdominal aorta. The femoral bones were excised to measure their bone mineral density. For the measurement by X ray, Bone Mineral Density Measuring Apparatus (DCS-600R, Aloka, Japan) was employed.
The experiment reported in Example 1 was repeated, using 4 groups of rats:
1. A normal group (as in Example 1).
2. A control ZDF group (as in Example 1).
(§6) 3. A test ZDF group in which troglitazone was present in the feed in an amount of 0.2%, resulting in an average uptake of 132 mg/kg/day (hereinafter the "troglitazone ZDF group").
(§7) 4. A test ZDF group in which pioglitazone was present in the feed in an amount of 0.067%, resulting in an average uptake of 52.6 mg/kg/day (hereinafter the "pioglitazone ZDF group").
The experiment reported in Example 1 was repeated, but only for 4 weeks, using 6 groups of rats:
(§8) 3. A test ZDF group in which troglitazone was present in the feed in an amount of 0.05%, resulting in an average uptake of 43.5 mg/kg/day (hereinafter the "low troglitazone ZDF group").
(§9) 4. A test ZDF group in which troglitazone was present in the feed in an amount of 0.1%, resulting in an average uptake of 89.8 mg/kg/day (hereinafter the "high troglitazone ZDF group").
(§10) 5. A test ZDF group in which pioglitazone was present in the feed in an amount of 0.0125%, resulting in an average uptake of 12.4 mg/kg/day (hereinafter the "low pioglitazone ZDF group").
(§11) 6. A test ZDF group in which pioglitazone was present in the feed in an amount of 0.025%, resulting in an average uptake of 23.1 mg/kg/day (hereinafter the "high pioglitazone ZDF group").

[2] = system: Zucker Diabetic Fatty rats; assay: Control of diabetes in ZDF rats; type: in vivo
Method: as §4, §5, §6, §7, §8, §9, §10, §11

[3] = Acute toxicity, oral administration; conditions: mouse, in vivo; oral administration
Method: as §1, §2, §3

rat = conditions: J. Bone & Mineral Research, 10(1), S361 (1995); cited from earlier work
[4] = Example 2, at doses that fully control diabetes, compared with control ZDF rats
[5] = Example 3, low and high doses, 4 weeks, as compared with control ZDF group
[6] = Example 2, troglitazone 132 mg/kg/day, pioglitazone 52.6 mg/kg/day
[7] = Example 3, troglitazone 43.5 and 89.8 mg/kg/day, pioglitazone 12.4 and 23.1 mg/kg/day

Compound	effect on bone mineral density (in words) [1, 4]	effect on bone mineral density (in words) [1, 5]	control of diabetes [2, 6]	control of diabetes [2, 7]	LD50 at 120 h [3] [mg/kg]	other results
Cc1c(C)c2c(c(C)c1O)CCC(C)(COc1ccc(CC3SC(=O)NC3=O)cc1)O2 (centres unmarked) [Compound No. 1, 5-[4-(6-Hydroxy-2,5,7,8-tetramethylchroman-2-ylmethoxy)benzyl]thiazolidin-2,4-dione]	increased BMD from the depressed level in the control ZDF rats almost to the level found in normal rats	improves BMD as compared with the control ZDF group	fully controlled diabetes	do not control diabetes or control it only partially; also recorded: incompletely effective against diabetes	–	survival after 5 days (ddy-mice): all mice were alive; Bone mineral density (BMD) ([1]; Example 1, test ZDF group, 0.2% w/w in feed, mean 165 mg/kg/day, 13 weeks, n=7, * p < 0.05 vs control ZDF (164.6 ± 3.9), normal 187.3 ± 2.3): 172.8 ± 7.2 mg/cm^2; Bone mineral density (BMD) ([1]; Example 2, troglitazone ZDF group, 0.2% in feed, 132 mg/kg/day, n=6, *** p < 0.001 vs control ZDF (157.0 ± 2.2), normal 187.4 ± 1.5): 169.4 ± 1.1 mg/cm^2; Bone mineral density (BMD) ([1]; Example 3, 4 weeks, high troglitazone ZDF group, 0.1% in feed, 89.8 mg/kg/day, n=5, *** p < 0.001 vs control ZDF (149.8 ± 1.0)): 159.8 ± 1.2 mg/cm^2; Bone mineral density (BMD) ([1]; Example 3, 4 weeks, low troglitazone ZDF group, 0.05% in feed, 43.5 mg/kg/day, n=5, *** p < 0.001 vs control ZDF (149.8 ± 1.0), normal 153.4 ± 0.9): 156.6 ± 1.5 mg/cm^2; control of diabetes ([2]; Example 1, mean dosage 165 mg/kg/day in feed): diabetes is fully controlled
Cc1c(C)c2c(c(C)c1O)CCC(COc1ccc(CC3SC(=O)NC3=O)cc1)O2 (centres unmarked) [compound 2]	–	–	–	–	> 300	–
CC1(COc2ccc(CC3SC(=O)NC3=O)cc2)CCc2cc(O)ccc2O1 (centres unmarked) [compound 3]	–	–	–	–	> 300	–
CC1(COc2ccc(CC3SC(=O)NC3=O)cc2)CCc2cc(O)c(C(C)(C)C)cc2O1 (centres unmarked) [compound 4, 5-[4-(6-Hydroxy-2-methyl-7-t-butylchroman-2-ylmethoxy)benzyl]thiazolidin-2,4-dione]	–	–	–	–	> 300	–
CCOC(=O)Oc1c(C)c(C)c2c(c1C)CCC(C)(COc1ccc(CC3SC(=O)NC3=O)cc1)O2 (centres unmarked) [compound 10]	–	–	–	–	> 300	–
CCc1ccc(CCOc2ccc(CC3SC(=O)NC3=O)cc2)nc1 (centres unmarked) [pioglitazone, reference compound]	reduced BMD to below the level found in untreated ZDF rats	not effective	fully controlled diabetes	do not control diabetes or control it only partially; also recorded: incompletely effective against diabetes	–	bone loss as assessed by bone mineral density (rat): lead to bone loss, as assessed by a decrease in bone mineral density; Bone mineral density (BMD) ([1]; Example 2, pioglitazone ZDF group, 0.067% in feed, 52.6 mg/kg/day, n=6, * p < 0.05 vs control ZDF (157.0 ± 2.2)): 149.3 ± 1.8 mg/cm^2; Bone mineral density (BMD) ([1]; Example 3, 4 weeks, high pioglitazone ZDF group, 0.025% in feed, 23.1 mg/kg/day, n=5, control ZDF 149.8 ± 1.0): 151.2 ± 0.7 mg/cm^2; Bone mineral density (BMD) ([1]; Example 3, 4 weeks, low pioglitazone ZDF group, 0.0125% in feed, 12.4 mg/kg/day, n=5, control ZDF 149.8 ± 1.0): 151.2 ± 0.9 mg/cm^2; anti-diabetic activity relative to troglitazone ([2]; statement in Example 2): more active than troglitazone
